Our source for the IC50 values is article PMC7224190, “Pharmacological inhibition of PRMT7 links arginine monomethylation to the cellular stress response” (Nature Communications, 2020).

Common to all, as to assay: biochemical
Common to all, as to parameters: radiometric methyltransferase assay with tritiated SAM, IC50

Assay [1] addresses PRMT1 (Homo sapiens, UniProt Q99873). Here is the method: (§1) The methyltransferase selectivity was assessed at two compound concentrations of 1 and 10 μM by radiometric assays using tritiated-SAM. For methyltransferases: MLL1, MLL3, EZH1 (PRC2), and EZH2 (PRC2), G9a, GLP, SUV39H1, SUV39H2, SUV420H1, SUV420H2, SETD2, SETD8, SETDB1, SETD7, PRMT1, PRMT3, PRMT4, PRMT5/ MEP50 complex, PRMT6, PRMT7, PRMT8, PRMT9, PRDM9, SMYD2, SMYD3, DNMT1, and BCDIN3D the incorporation of a tritium-labeled methyl group into biotinylated substrate was monitored using scintillation proximity assay (SPA). Briefly, a 10 μL reaction containing ^3H-SAM and substrate at concentrations close to the apparent Km values for each enzyme (balanced conditions) was prepared. The reactions were quenched with 10 μL of 7.5 M guanidine hydrochloride; 180 μL of 20 mM Tris buffer (pH 8.0) were added, and the mixture was transferred to a 96-well FlashPlate and incubated for 1 h. The counts per minute (CPM) was measured on a TopCount plate reader. The CPM in the absence of compound or enzyme was defined as 100% activity and background (0%), respectively, for each dataset[74]–[76]. Selectivity of SGC8158 against 342 kinases was evaluated in a kinase panel TR-FRET assay at 1 and 0.1 μM compound in duplicates as described before. Briefly, tagged kinases were incubated with compound and staurosporine-based fluorescent probe where the binding was detected using Tb conjugated anti-tag antibody energy transfer to the probe. Excitation wavelength was 337 nm and fluorescent emission signal was measured for Tb (486 nm) and fluorescent probe (BODIPY, 515 nm). Specific and non-specific binding was determined in the absence and presence of unlabeled staurosporine. Assays using biotinylated H2B (23–37) as a substrate were performed in buffer (20 mM Tris–HCl, pH 8.5, 0.01% Tween-20, and 5 mM DTT) containing 5 nM PRMT7, 1.1 µM ^3H-SAM (Cat.# NET155V250UC; Perkin Elmer; www.perkinelmer.com) and 0.3 µM H2B (23–37). The reaction mixtures were incubated for 60 min at 23 °C. To stop the enzymatic reactions, 10 µL of 7.5 M guanidine hydrochloride was added, followed by 180 µL of buffer (20 mM Tris, pH 8.0), mixed and then transferred to a 96-well FlashPlate (Cat.# SMP103; Perkin Elmer; www.perkinelmer.com). After mixing, the reaction mixtures in Flash plates were incubated for 1 h and the CPM were measured using Topcount plate reader (Perkin Elmer, www.perkinelmer.com). The CPM counts in the absence of compound for each dataset were defined as 100% activity. In the absence of the enzyme, the CPM counts in each dataset were defined as background (0%). The IC50 values were determined using GraphPad Prism 7 software. For the kinetic analysis of HSPA8 methylation by PRMT7, the assay mixture contained 20 mM Tris–HCl, pH 8.5, 0.01% Tween-20, and 5 mM dithiothreitol (DTT), 1 mM MgCl2, 1 mM ATP where indicated, 250 nM PRMT7, fixed concentration (20 µM) of SAM, various concentrations (up to 40 µM) of HSPA8; or fixed concentration (10 µM) of HSPA8 with different concentrations of SAM (up to 20 µM). […] To determine the mode of action, the experiments were performed in the presence of fixed biotinylated H2B peptide (residues 23–37) or HSPA8 substrate concentration and increasing SAM concentration or at fixed concentration of SAM and varying concentration of the substrate. Twenty µL of reaction mixtures were incubated at 23 °C for 60 min. To stop reactions, 100 µL of 10% trichloroacetic acid (TCA) was added, mixed and transferred to filter-plates (Millipore; cat.# MSFBN6B10; www.millipore.com). Plates were centrifuged at 930 × g (Allegra X-15R—Beckman Coulter, Inc.) for 2 min followed by two additional 10% TCA washes and one ethanol wash followed by centrifugation. Plates were dried and 30 µL MicroScint-O (

Assay [2] concerns the target T1, PRMT9 (Homo sapiens, UniProt Q6P2P2).
T1 sequence (Q6P2P2 1-845): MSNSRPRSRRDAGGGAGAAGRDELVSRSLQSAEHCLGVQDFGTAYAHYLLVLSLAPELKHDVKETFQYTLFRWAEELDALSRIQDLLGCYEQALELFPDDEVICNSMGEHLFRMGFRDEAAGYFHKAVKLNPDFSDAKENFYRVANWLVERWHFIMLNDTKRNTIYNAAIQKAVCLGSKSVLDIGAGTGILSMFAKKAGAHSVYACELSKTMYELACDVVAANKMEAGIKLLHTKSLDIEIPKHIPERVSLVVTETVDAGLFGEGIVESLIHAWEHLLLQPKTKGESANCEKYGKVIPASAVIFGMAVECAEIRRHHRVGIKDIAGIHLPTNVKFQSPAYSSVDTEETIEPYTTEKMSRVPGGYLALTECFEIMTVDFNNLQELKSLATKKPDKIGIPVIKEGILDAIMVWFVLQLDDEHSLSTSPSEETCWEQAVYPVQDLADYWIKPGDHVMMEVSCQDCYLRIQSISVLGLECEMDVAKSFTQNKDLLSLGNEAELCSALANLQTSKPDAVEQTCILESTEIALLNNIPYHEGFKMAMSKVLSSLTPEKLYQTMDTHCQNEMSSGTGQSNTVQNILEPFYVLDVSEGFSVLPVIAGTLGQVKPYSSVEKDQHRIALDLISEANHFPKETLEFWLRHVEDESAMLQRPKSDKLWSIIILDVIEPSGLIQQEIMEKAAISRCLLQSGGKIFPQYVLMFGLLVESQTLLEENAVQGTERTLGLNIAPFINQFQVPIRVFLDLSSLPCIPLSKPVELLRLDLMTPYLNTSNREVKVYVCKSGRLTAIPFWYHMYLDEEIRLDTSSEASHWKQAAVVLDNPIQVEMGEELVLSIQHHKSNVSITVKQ
The procedure: as §1

Assay [3] concerns the target PRMT3 (Homo sapiens, UniProt O60678). Here is the method:
as §1

Assay [4] has as its target PRMT6 (Homo sapiens, UniProt Q96LA8). The procedure: as §1
For assay [5], the target named is PRMT8 (Homo sapiens, UniProt Q9NR22). The procedure: as §1
Assay [6] addresses PRMT5-MEP50 (Homo sapiens, UniProt O14744). Here is the method: as §1

PRMT5-MEP50, sequence (O14744 whole entry): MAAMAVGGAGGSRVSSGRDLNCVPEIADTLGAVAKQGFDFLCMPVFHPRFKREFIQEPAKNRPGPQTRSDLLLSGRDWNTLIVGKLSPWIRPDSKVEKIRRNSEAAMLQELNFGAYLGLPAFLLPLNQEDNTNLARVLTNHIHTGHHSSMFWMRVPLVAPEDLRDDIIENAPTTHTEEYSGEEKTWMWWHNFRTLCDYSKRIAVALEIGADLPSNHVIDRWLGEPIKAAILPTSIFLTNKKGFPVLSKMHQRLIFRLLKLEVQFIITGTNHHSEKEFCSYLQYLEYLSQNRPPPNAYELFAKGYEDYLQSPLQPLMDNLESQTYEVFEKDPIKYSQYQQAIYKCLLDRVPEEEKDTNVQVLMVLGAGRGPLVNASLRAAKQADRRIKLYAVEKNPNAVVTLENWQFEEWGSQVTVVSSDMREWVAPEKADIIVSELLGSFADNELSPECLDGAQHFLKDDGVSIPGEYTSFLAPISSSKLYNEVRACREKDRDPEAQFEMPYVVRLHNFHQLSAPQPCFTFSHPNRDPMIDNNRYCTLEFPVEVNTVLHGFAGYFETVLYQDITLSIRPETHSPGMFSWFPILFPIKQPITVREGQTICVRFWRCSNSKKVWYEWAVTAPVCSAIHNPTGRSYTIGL
PRMT5-MEP50, sequence (Q9BQA1 whole entry partner): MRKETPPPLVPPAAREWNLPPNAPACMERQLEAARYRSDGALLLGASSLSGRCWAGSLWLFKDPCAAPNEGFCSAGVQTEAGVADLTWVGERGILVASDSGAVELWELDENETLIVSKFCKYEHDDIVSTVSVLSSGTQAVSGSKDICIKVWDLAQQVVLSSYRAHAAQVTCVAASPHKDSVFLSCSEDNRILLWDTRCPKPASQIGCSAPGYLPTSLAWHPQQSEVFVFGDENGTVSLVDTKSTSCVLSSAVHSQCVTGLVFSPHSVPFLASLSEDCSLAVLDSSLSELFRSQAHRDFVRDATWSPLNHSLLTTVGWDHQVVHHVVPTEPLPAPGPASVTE
PRMT3, sequence (O60678 whole entry): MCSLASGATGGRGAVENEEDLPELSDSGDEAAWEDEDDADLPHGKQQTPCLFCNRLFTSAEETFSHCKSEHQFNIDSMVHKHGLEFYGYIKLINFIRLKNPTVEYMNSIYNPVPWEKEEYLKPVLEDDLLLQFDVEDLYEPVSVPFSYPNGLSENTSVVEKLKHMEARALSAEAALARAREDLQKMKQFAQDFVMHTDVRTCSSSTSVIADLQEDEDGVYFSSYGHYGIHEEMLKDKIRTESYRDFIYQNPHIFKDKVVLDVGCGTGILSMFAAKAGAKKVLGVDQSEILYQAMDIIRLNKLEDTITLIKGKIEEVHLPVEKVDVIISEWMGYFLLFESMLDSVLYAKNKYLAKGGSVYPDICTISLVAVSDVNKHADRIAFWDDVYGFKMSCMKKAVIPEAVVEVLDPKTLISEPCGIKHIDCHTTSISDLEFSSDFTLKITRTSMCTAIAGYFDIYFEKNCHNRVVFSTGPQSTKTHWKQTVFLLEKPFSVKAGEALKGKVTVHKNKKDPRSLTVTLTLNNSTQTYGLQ
PRMT8, sequence (Q9NR22 whole entry): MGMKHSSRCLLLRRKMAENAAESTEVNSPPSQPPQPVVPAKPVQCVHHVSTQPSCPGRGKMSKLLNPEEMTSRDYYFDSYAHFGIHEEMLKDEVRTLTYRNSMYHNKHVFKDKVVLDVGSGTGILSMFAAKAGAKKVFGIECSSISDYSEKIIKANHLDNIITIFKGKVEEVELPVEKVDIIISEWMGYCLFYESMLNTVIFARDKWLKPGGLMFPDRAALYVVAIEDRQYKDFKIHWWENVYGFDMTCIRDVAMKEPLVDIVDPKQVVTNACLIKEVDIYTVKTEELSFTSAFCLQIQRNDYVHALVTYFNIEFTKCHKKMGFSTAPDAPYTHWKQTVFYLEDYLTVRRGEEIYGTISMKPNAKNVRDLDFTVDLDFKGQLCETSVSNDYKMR
PRMT6, sequence (Q96LA8 whole entry): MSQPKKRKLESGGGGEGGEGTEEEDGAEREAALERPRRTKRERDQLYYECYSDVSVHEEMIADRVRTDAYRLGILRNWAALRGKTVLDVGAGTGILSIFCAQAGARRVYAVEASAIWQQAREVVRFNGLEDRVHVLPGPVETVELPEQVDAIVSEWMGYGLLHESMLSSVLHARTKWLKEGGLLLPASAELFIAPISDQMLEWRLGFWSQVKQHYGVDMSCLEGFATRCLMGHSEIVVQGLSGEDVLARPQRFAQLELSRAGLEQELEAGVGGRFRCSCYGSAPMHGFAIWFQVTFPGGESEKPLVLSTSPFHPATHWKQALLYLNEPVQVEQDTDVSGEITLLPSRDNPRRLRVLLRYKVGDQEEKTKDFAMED
PRMT1, sequence (Q99873 whole entry): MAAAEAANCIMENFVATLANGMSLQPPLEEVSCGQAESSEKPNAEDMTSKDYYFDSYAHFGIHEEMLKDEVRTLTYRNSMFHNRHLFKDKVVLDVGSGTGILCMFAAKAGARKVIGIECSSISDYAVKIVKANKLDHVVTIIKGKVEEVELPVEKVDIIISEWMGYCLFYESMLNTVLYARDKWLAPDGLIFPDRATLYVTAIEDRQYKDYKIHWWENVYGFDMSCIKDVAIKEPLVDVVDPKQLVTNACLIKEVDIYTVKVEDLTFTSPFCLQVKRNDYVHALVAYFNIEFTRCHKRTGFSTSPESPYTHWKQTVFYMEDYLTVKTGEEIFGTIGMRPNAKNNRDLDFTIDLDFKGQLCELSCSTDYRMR

Consider `Nc1ncnc2c1ncn2[C@@H]1O[C@H](CSCCCNCc2cccc(-c3ccc(Cl)cc3)c2)[C@@H](O)[C@H]1O` [SGC8172], for which the IC50 was greater than 5000 nM in assay [1]; 138 nM in assay [2]; 269 nM in assay [3]; roughly 1200 nM in assay [4]; roughly 1500 nM in assay [5]; 44 nM in assay [6].

What is called IC50 is the concentration needed to halve the response being measured.
